Results as given in patent US12583848B2, “Isoxazole-3-carboxamide derivatives and their use for treatment of diseases caused by virus infection” (Collaborations Pharmaceuticals, Inc., priority 2019, dated 2026).

Columns and labels:
[1] = system: poliomyelitis virus; conditions: cited from earlier work
[2] = system: poliovirus; conditions: mouse, in vivo; cited from earlier work
[3] = system: CVB3 97927-I1207M (pleconaril-resistant variant); format: cell-based, coxsackievirus B3
[4] = system: rhinovirus A2 (RV-A2); experiment: organism not typed; format: cell-based; conditions: HeLa, 72 h, read-out: IC50 against Rhinoviruses (RV) RV-A2
[5] = system: rhinovirus B14 (RV-B14); experiment: organism not typed; format: cell-based; conditions: HeLa, 72 h, read-out: IC50 against Rhinoviruses (RV) RV-B14
[6] = system: HeLa cells; conditions: human
[7] = system: Escherichia coli PQ37
[8] = system: CVB3 97927-I1207K (pleconaril-resistant variant); format: cell-based, coxsackievirus B3
[9] = system: CVB3 97927-I1207T (pleconaril-resistant variant); format: cell-based, coxsackievirus B3
[10] = system: rhinovirus B5 (RV-B5); experiment: organism not typed; format: cell-based; conditions: HeLa cells, CPE inhibition, 72 hours; n.a. = not active; read-out: IC50 against Rhinoviruses (RV) RV-B5
[11] = system: clinical isolates of enterovirus serotypes; conditions: most of 215 clinical isolates of enterovirus serotypes; cited from earlier work
[12] = system: coxsackievirus B3 I1207K and I1207R; conditions: in vitro; cited from earlier work
[13] = in vitro; conditions: human, HeLa cells
[14] = target: PXR (Homo sapiens, UniProt O75469); experiment: biochemical
[15] = system: Enterovirus D68 (EV-D68 MP30 PP); format: in vivo, AG129 mice; conditions: guanidine 100 mg/kg/d IP, days 1 and 3 post-infection

Chain of PXR (O75469 111-434 limits assumed): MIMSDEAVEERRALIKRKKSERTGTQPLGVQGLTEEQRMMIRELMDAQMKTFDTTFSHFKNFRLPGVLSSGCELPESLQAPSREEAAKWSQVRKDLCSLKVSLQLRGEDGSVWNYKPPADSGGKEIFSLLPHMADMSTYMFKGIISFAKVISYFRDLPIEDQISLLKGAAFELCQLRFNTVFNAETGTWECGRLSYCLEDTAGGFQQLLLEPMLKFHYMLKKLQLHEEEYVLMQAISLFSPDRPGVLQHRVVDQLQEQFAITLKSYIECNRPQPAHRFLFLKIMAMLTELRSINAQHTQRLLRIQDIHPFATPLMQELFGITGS

Compound: CCC(=O)C(CCCCCCOc1ccc(OC)cc1Cl)C(=O)CC [Arildone]
- replication of poliomyelitis virus in vitro [1]: specifically inhibits replication of poliomyelitis virus in vitro
- poliovirus-induced paralysis and death [2]: prevents poliovirus-induced paralysis and death in mice

Compound: Cc1cc(-c2noc(C(F)(F)F)n2)cc(C)c1OCCCc1cc(C(=O)NCc2ccccc2)no1 [Compound 1, N-benzyl-5-(3-{2,6-dimethyl-4-[5-(trifluoromethyl)-1,2,4-oxadiazol-3-yl]phenoxy}propyl)isoxazole-3-carboxamide]
- IC50 [3]: 13.1 µM
- IC50 [4]: 0.23 µM
- IC50 [5]: 0.25 µM
- CC50 [6]: > 100 µM

Compound: CNC(=O)c1cc(CCCOc2c(C)cc(-c3noc(C(F)(F)F)n3)cc2C)on1 [Compound 2, 5-(3-{2,6-dimethyl-4-[5-(trifluoromethyl)-1,2,4-oxadiazol-3-yl]phenoxy}propyl)-N-methylisoxazole-3-carboxamide]
- IC50 [3]: 0.37 µM
- IC50 [4]: 0.21 µM
- IC50 [5]: 0.02 µM
- CC50 [6]: > 100 µM
- Mutagenicity [7]: NO

Compound: Cc1cc(-c2noc(C(F)(F)F)n2)cc(C)c1OCCCc1cc(C(N)=O)no1 [Compound 3, 5-(3-{2,6-dimethyl-4-[5-(trifluoromethyl)-1,2,4-oxadiazol-3-yl]phenoxy}propyl)isoxazole-3-carboxamide]
- IC50 [3]: 1.69 µM
- IC50 [4]: 0.5 µM
- IC50 [5]: 0.22 µM
- CC50 [6]: > 100 µM

Compound: Cc1cc(-c2noc(C(F)(F)F)n2)cc(C)c1OCCCc1cc(C(=O)N(C)C)no1 [Compound 4, 5-(3-{2,6-dimethyl-4-[5-(trifluoromethyl)-1,2,4-oxadiazol-3-yl]phenoxy}propyl)-N,N-dimethylisoxazole-3-carboxamide]
- IC50 [8]: 8.52 µM
- IC50 [3]: < 0.03 µM
- IC50 [9]: 1.01 µM
- IC50 [4]: 0.12 µM
- IC50 [5]: 0.12 µM
- CC50 [6]: 13.2 µM
- Mutagenicity [7]: NO

Compound: COc1cc(-c2noc(C(F)(F)F)n2)ccc1OCCCc1cc(C(=O)N(C)C)no1 [Compound 6, 5-(3-{2-methoxy-4-[5-(trifluoromethyl)-1,2,4-oxadiazol-3-yl]phenoxy}propyl)-N,N-dimethylisoxazole-3-carboxamide]
- IC50 [8]: 51.7 µM
- IC50 [3]: 0.6 µM
- IC50 [9]: 1.66 µM
- IC50 [4]: 1.97 µM
- IC50 [10]: 3.28 µM
- IC50 [5]: 0.04 µM
- CC50 [6]: 68 µM

Compound: CN(C)C(=O)c1cc(CCCOc2ccc(-c3noc(C(F)(F)F)n3)cc2[N+](=O)[O-])on1 [Compound 7, N,N-dimethyl-5-(3-{2-nitro-4-[5-(trifluoromethyl)-1,2,4-oxadiazol-3-yl]phenoxy}propyl)isoxazole-3-carboxamide]
- IC50 [8]: 6.46 µM
- IC50 [3]: 0.001 µM
- IC50 [9]: 0.03 µM
- IC50 [4]: 0.67 µM
- IC50 [10]: 7.63 µM
- IC50 [5]: 0.28 µM
- CC50 [6]: 22.5 µM
- Mutagenicity [7]: NO

Compound: CN(C)C(=O)c1cc(CCCOc2ccc(-c3noc(C(F)(F)F)n3)cc2F)on1 [Compound 9, 5-(3-{2-fluoro-4-[5-(trifluoromethyl)-1,2,4-oxadiazol-3-yl]phenoxy}propyl)-N,N-dimethylisoxazole-3-carboxamide]
- IC50 [3]: 0.05 µM
- IC50 [9]: 1.43 µM
- IC50 [4]: 3.77 µM
- IC50 [10]: 4.04 µM
- IC50 [5]: 0.05 µM
- CC50 [6]: 20.2 µM

Compound: COc1cc(-c2noc(C(F)(F)F)n2)cc([N+](=O)[O-])c1OCCCc1cc(C(=O)N(C)C)no1 [Compound 10, 5-(3-{2-methoxy-6-nitro-4-[5-(trifluoromethyl)-1,2,4-oxadiazol-3-yl]phenoxy}propyl)-N,N-dimethylisoxazole-3-carboxamide]
- IC50 [3]: 0.88 µM
- IC50 [9]: 0.84 µM
- IC50 [4]: 0.32 µM
- IC50 [5]: 0.2 µM
- CC50 [6]: 25.6 µM

Compound: CN(C)C(=O)c1cc(CCCOc2ccc(-c3noc(C(F)(F)F)n3)cc2)on1 [Compound 11, N,N-dimethyl-5-(3-{4-[5-(trifluoromethyl)-1,2,4-oxadiazol-3-yl]phenoxy}propyl)isoxazole-3-carboxamide]
- IC50 [8]: 27.5 µM
- IC50 [3]: 0.02 µM
- IC50 [9]: 8.11 µM
- IC50 [4]: 4.61 µM
- IC50 [10]: 1.74 µM
- IC50 [5]: 0.04 µM
- CC50 [6]: 28 µM

Compound: CN(C)C(=O)c1cc(CCCOc2ccc(-c3noc(C(F)(F)F)n3)cc2C(F)(F)F)on1 [Compound 12, N,N-dimethyl-5-(3-{2-(trifluoromethyl)-4-[5-(trifluoromethyl)-1,2,4-oxadiazol-3-yl]phenoxy}propyl)isoxazole-3-carboxamide]
- IC50 [8]: 7.18 µM
- IC50 [3]: 0.16 µM
- IC50 [9]: 0.53 µM
- IC50 [4]: 0.32 µM
- IC50 [5]: 6.76 µM
- CC50 [6]: 19.2 µM
- Mutagenicity [7]: NO

Compound: CNC(=O)c1cc(CCCOc2ccc(-c3noc(C(F)(F)F)n3)cc2C(F)(F)F)on1 [Compound 13, N-methyl-5-(3-{2-(trifluoromethyl)-4-[5-(trifluoromethyl)-1,2,4-oxadiazol-3-yl]phenoxy}propyl)isoxazole-3-carboxamide]
- IC50 [3]: 0.06 µM
- IC50 [9]: 1.04 µM
- IC50 [4]: 0.96 µM
- CC50 [6]: > 100 µM

Compound: Cc1cc(CCCOc2c(C)cc(-c3noc(C(F)(F)F)n3)cc2C)on1 [Pleconaril, reference compound]
- IC50 [3]: 4.5 µM
- IC50 [9]: 9.41 µM
- IC50 [5]: 0.06 µM
- IC50 [11]: ≤ 0.03 µM
- antiviral activity against coxsackievirus B3 with I1207K or I1207R in VP1 [12]: completely abolish the antiviral activity
- CC50 [13]: 45.2 µM
- IC50 [14]: > 100 µM

Compound: Guanidine HCl [Gua- HCl, reference compound]
- IC50 [8]: 705 µM
- IC50 [3]: 725 µM
- IC50 [9]: 807 µM
- lung virus titers compared to placebo [15]: reduction in virus titers
